Assay results taken from patent US20160250354A1, “METHODS AND COMPOSITIONS FOR DELIVERY OF ACTIVE AGENTS” (TEKMIRA PHARMACEUTICALS CORPORATION, priority 2010, published 2016).

Test system: Factor VII
Experiment: in vivo rodent Factor VII silencing model (serum/plasma FVII after i.v. FVII siRNA lipid formulation)
Parameters: species or system C57BL/6 mice
Experimental: C57BL/6 mice (Charles River Labs, MA) receive either saline or siRNA in desired formulations via tail vein injection at a volume of 0.01 mL/g. At various time points post-administration, animals are anesthetized by isofluorane inhalation and blood is collected into serum separator tubes by retro orbital bleed. Serum levels of Factor VII protein are determined in samples using a chromogenic assay (Coaset Factor VII, DiaPharma Group, OH or Biophen FVII, Aniara Corporation, OH) according to manufacturer protocols. A standard curve is generated using serum collected from saline treated animals. In experiments where liver mRNA levels were assessed, at various time points post-administration, animals are sacrificed and livers are harvested and snap frozen in liquid nitrogen. Frozen liver tissue is ground into powder. Tissue lysates were prepared and liver mRNA levels of Factor VII and apoB are determined using a branched DNA assay (QuantiGene Assay, Panomics, CA).
Factor VII (FVII), a prominent protein in the coagulation cascade, is synthesized in the liver (hepatocytes) and secreted into the plasma. FVII levels in plasma can be determined by a simple, plate-based colorimetric assay. As such, FVII represents a convenient model for determining sirna-mediated downregulation of hepatocyte-derived proteins, as well as monitoring plasma concentrations and tissue distribution of the nucleic acid lipid particles and siRNA.
The cationic lipids shown above are used to formulate liposomes containing the AD-1661duplex using an in-line mixing method, as described in U.S. provisional patent application 61/228,373, which is incorporated by reference in its entirety. Lipid particles are formulated using the following molar ratio: 50% Cationic lipid/10% distearoylphosphatidylcholine (DSPC)/38.5% Cholesterol/1.5% PEG-DMG (1-(monomethoxy-polyethyleneglycol)-2,3-dimyristoylglycerol, with an average PEG molecular weight of 2000).
C57BL/6 mice (Charles River Labs, MA) receive either saline or formulated siRNA via tail vein injection. At various time points after administration, serum samples are collected by retroorbital bleed. Serum levels of Factor VII protein are determined in samples using a chromogenic assay (Biophen FVII, Aniara Corporation, OH). To determine liver mRNA levels of Factor VII, animals are sacrificed and livers were harvested and snap frozen in liquid nitrogen. Tissue lysates are prepared from the frozen tissues and liver mRNA levels of Factor VII are quantified using a branched DNA assay (QuantiGene Assay, Panomics, CA).
FVII activity is evaluated in FVII siRNA-treated animals at 48 hours after intravenous (bolus) injection in C57BL/6 mice. FVII is measured using a commercially available kit for determining protein levels in serum or tissue, following the manufacturer's instructions at a microplate scale. FVII reduction is determined against untreated control mice, and the results are expressed as % Residual FVII. Two dose levels (0.05 and 0.005 mg/kg FVII siRNA) are used in the screen of each novel liposome composition.
Cationic lipid containing particles are made using the preformed vesicle method. Cationic lipid, DSPC, cholesterol and PEG-lipid were solubilized in ethanol at a molar ratio of 40/10/40/10, respectively. The lipid mixture is added to an aqueous buffer (50 mM citrate, pH 4) with mixing to a final ethanol and lipid concentration of 30% (vol/vol) and 6.1 mg/mL respectively and allowed to equilibrate at room temperature for 2 min before extrusion. The hydrated lipids are extruded through two stacked 80 nm pore-sized filters (Nuclepore) at 22° C. using a Lipex Extruder (Northern Lipids, Vancouver, BC) until a vesicle diameter of 70-90 nm, as determined by Nicomp analysis, is obtained. This generally required 1-3 passes.
The FVII siRNA (solubilised in a 50 mM citrate, pH 4 aqueous solution containing 30% ethanol) is added to the vesicles, pre-equilibrated to 35° C., at a rate of ˜5 mL/min with mixing. […]

[1] = Table 10, dose resulting in a 50% reduction in plasma FVII levels vs control animals, lipid formulation with FVII siRNA, i.v. tail vein, C57Bl/6 mice

CCCCC/C=C\C/C=C\CCCCCCC[C@H]1OC2(CCN(C)CC2)O[C@@H]1CCCCCCC/C=C\C/C=C\CCCCC [Compound 4]
ED50 [1]: 0.07 mg/kg

CCCCCC1CC1CC1CC1CCCCCCCCC(CCCCCCCCC1CC1CC1CC1CCCCC)OC(=O)CCCN(C)C (stereo not drawn) [Compound 1, 1,17-bis(2-((2-pentylcyclopropyl)methyl)cyclopropyl)heptadecan-9-yl 4-(dimethylamino)butanoate]
ED50 [1]: 0.12 mg/kg | ED50 (in-line mixing formulation compound 1/DSPC/Chol/(C14)PEG-DMG 50/10/38.5/1.5, FIG. 1): 0.01 mg/kg | ED50 (pre-formed vesicle (PFV) formulation compound 1/DSPC/Chol/(C14)PEG-DMG 40/10/40/10, FIG. 2): 0.12 mg/kg

CCCCC/C=C\C/C=C\CCCCCCCCC(CCCCCCCC/C=C\C/C=C\CCCCC)ON=CCCCN(C)C [Compound 3]
ED50 [1]: 0.06 mg/kg

CCCCC/C=C\C/C=C\CCCCCCCCC(CCCCCCCC/C=C\C/C=C\CCCCC)SSCCCCN(C)C [Compound 2]
ED50 [1]: 0.11 mg/kg
